According to patent US20170240556A1, “BIFLUORODIOXALANE-AMINO-BENZIMIDAZOLE KINASE INHIBITORS FOR THE TREATMENT OF CANCER, AUTOIMMUNEINFLAMMATION AND CNS DISORDERS” (4SC DISCOVERY GMBH, priority 2012, published 2017):

Tests used:
[1] = molecular target: Casein kinase 1 delta (CSKN1D) (Homo sapiens, UniProt P48730); assay: Casein kinase assay, CK1 delta; assay type: biochemical; conditions: recombinant CSKN1D 5 nM, ATP 10 μM
SAOS2 (bone) = assay: Proliferation Assay; assay type: cell-based; conditions: Homo sapiens, SAOS-2, 72 h, read-out: IC50 inhibition of cell growth
Procedure: (§1) For the determination of the inhibitory capacity of compounds of the present invention (in the following: “test compound(s)”) on cell growth, cancer cells were seeded into microtitre plates, treated with different concentrations of test compound or left untreated, and after 72 h the protein content was determined as an equivalent for the cell number.
(§2) Test compounds were dissolved in 100% DMSO and predilutions in cell culture medium were prepared with a final concentration of 0.1% DMSO in medium. The cell culture medium for dilution of the test compounds, consecutive culturing of cell lines and usage during the assay was a cell line specific medium as recommended by the cell line supplier and identical for all three applications mentioned above. After a 24-hour pre-growth period of the seeded cancer cells, the test compound containing media or medium containing 0.1% DMSO as control was added to the cells. The cells were allowed to grow at 37° C. for 72 hours. In addition, all experiments contained a few plates with cells that were processed for measurement immediately after the 24 hours recovery period. These plates contained information about the cell number that existed before treatment, at time zero, and served to calculate the cytotoxicity and/or growth inhibitory effects.
(§3) After treatment, cells were precipitated by addition of 10% TCA (trichloracetic acid). Prior to fixation, the media was aspirated. After an hour of incubation at 4° C. the plates were washed twice with 400 μl of deionized water. Cells were then stained with 100 μl of a 0.08% wt/v SRB (sulforhodamine). The plates were allowed to sit for at least 30 min and washed six times with 1% acetic acid to remove unbound staining agent. The plates were left to dry at room temperature and bound SRB was solubilized with 100 μl of 10 mM Tris base. Measurement of optical density was performed at 560 nm on a Victor 2 plate reader (Perkin Elmer, Germany).
(§4) One common way to express the effect of an anticancer agent is to measure cell viability and survival in the presence of the test agent as % Treated/Control×100. The relationship between the viability and dose is called a dose response curve. Those dose response curves were determined by using algorithms developed by Oncolead GmbH & Co. KG, Munich, Germany, that can be compared to commercial applications, e.g. XLfit™ (ID Business Solutions Ltd., Guildford, UK) algorithm “205”.

IGROV1 (ovary) = assay: Proliferation Assay; assay type: cell-based; conditions: Homo sapiens, IGROV-1, 72 h, read-out: IC50 inhibition of cell growth
Procedure: as §1, §2, §3, §4

HEK293 (kidney) = assay: Proliferation Assay; assay type: cell-based; conditions: Homo sapiens, 72 h, read-out: IC50 inhibition of cell growth
Procedure: as §1, §2, §3, §4

SKMEL28 (skin) = assay: Proliferation Assay; assay type: cell-based; conditions: Homo sapiens, SK-MEL-28, 72 h, read-out: IC50 inhibition of cell growth
Procedure: as §1, §2, §3, §4

DU145 (prostate) = assay: Proliferation Assay; assay type: cell-based; conditions: Homo sapiens, DU-145, 72 h, read-out: IC50 inhibition of cell growth
Procedure: as §1, §2, §3, §4

C33A (cervix) = assay: Proliferation Assay; assay type: cell-based; conditions: Homo sapiens, C-33-A, 72 h, read-out: IC50 inhibition of cell growth
Procedure: as §1, §2, §3, §4

SKLMS1 (uterus) = assay: Proliferation Assay; assay type: cell-based; conditions: Homo sapiens, SK-LMS-1, 72 h, read-out: IC50 inhibition of cell growth
Procedure: as §1, §2, §3, §4

Chain of Casein kinase 1 delta (CSKN1D) (P48730 whole entry): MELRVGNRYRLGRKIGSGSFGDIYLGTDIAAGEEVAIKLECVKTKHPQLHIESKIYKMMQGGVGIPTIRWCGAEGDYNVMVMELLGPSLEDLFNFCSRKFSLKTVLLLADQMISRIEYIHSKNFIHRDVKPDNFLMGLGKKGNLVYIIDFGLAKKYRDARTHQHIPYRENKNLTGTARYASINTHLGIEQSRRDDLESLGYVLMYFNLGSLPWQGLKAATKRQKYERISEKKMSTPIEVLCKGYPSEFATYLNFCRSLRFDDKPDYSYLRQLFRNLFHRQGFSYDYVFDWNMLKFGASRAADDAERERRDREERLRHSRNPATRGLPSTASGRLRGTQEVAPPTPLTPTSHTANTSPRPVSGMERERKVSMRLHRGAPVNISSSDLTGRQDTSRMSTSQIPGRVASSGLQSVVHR

IC50 [1]: < 0.2 µM
IC50 (SKMEL28 (skin)): ≤ 1 µM
IC50 (DU145 (prostate)): ≤ 1 µM
IC50 (SKLMS1 (uterus)): ≤ 1 µM
SMILES: COc1cccc(C(=O)Nc2nc3cc4c(cc3[nH]2)OC(F)(F)O4)c1 [Compound 56, N-(2,2-difluoro-5H-[1,3]dioxolo[4′,5′:4,5]benzo[1,2-d]imidazol-6-yl)-3-methoxybenzamide]
IC50 (SAOS2 (bone)): ≤ 1 µM
IC50 (IGROV1 (ovary)): ≤ 1 µM
IC50 (HEK293 (kidney)): ≤ 1 µM
IC50 (C33A (cervix)): ≤ 1 µM
